Patent US8628754B2, “Highly efficient delivery of a large therapeutic mass aerosol” (Civitas Therapeutics, Inc., priority 2000, dated 2014)
Like-named read-outs stand apart in the source and are kept apart here.

Key:
[1] = system: rat model of Parkinson's disease; assay: Placing task; assay type: in vivo
[2] = system: rat model of Parkinson's disease; assay: Bracing task; assay type: in vivo
[3] = system: rat model of Parkinson's disease; assay: Akinesia task; assay type: in vivo
[4] = system: rat model of Parkinson's disease; assay: Rotation test; assay type: in vivo
[5] = oral gavage, 8 mg in saline with 1% methylcellulose, carbidopa pre-treatment, 0-30 min
[6] = Geometric diameter by RODOS dry powder disperser / HELOS laser diffraction; assay type: physicochemical
From the text: The Applicants introduced the powders into and dispersed the powder through an orifice in the RODOS dry powder disperser at varying shear forces by manipulating the regulator pressure of the air stream used to break up the particles. The Applicants obtained the geometric size distribution from the HELOS laser diffractometer as the powder exited and recorded the median value. The data was summarized and plotted as the mass median geometric diameter (MMGD) against pressure.
To evaluate the deagglomeration properties of the three powders, Applicants introduced the powders into a RODOS dry powder disperser and varied the shear force in order to break up the particles by manipulating the regulator pressure of the air stream. Subsequently, following the manufacturer's instructions, Applicants obtained the geometric size distribution from the HELOS laser diffractometer and recorded the median value. The data was summarized and plotted as […] (MMGD) against pressure.
Particles of the present invention were further characterized by the following techniques. The primary geometric diameter was measured using a RODOS dry powder disperser (Sympatec, Princeton, N.J.) in conjunction with a HELOS laser diffractometer (Sympatec). Powder was introduced into the RODOS inlet and aerosolized by shear forces generated by a compressed air stream regulated at 4 bar. The aerosol cloud was subsequently drawn into the measuring zone of the HELOS, where it scattered light from a laser beam and produced a Fraunhofer diffraction pattern used to infer the particle size distribution.
Geometric diameter was determined using a laser diffraction technique (Alkermes SOP #MS-021-005). The equipment consists of a HELOS diffractometer and a RODOS disperser (Sympatec, Inc., Princeton, N.J.). The RODOS disperser applies a shear force to a sample of particles, controlled by the regulator pressure of the incoming compressed air. The dispersed particles travel through a laser beam where the resulting diffracted light pattern produced is collected by a series of detectors. […]

[7] = Tap density; assay type: physicochemical
From the text: Tap density can be measured by using instruments known to those skilled in the art such as the Dual Platform Microprocessor Controlled Tap Density Tester (Vankel, N.C.). Tap density is a standard measure of the envelope mass density. Tap density can be determined using the method of USP Bulk Density and Tapped Density, United States Pharmacopia convention, Rockville, Md., 10th Supplement, 4950-4951, 1999. In another embodiment, the particles have a mass median geometric diameter (MMGD) greater than about 5 μm and preferably near to or greater than about 10 μm. In one embodiment, the particles have a MMGD greater than about 5 μm and ranging to about 30 μm. In another embodiment, the particles have a MMGD ranging from about 10 μm to about 30 μm.

[8] = Geometric diameter emitted from breath-activated inhaler (IHA/HELOS); assay type: physicochemical; conditions: 5 mg in size #2 capsule
Method: To further evaluate the ability of the three powders to emit from a simple, breath-activated inhaler, Applicants placed 5 mg of each powder in a size #2 methyl cellulose capsule and inserted the capsule into a breath-activated inhaler. It will be appreciated by those skilled in the art that the receptacle into which the powders are placed will depend on the type of inhaler selected. […] The same results were obtained from measurements of the aerodynamic diameter, with spray-dried particles emitting with very similar aerodynamic diameters as compared to the primary particles.
The geometric diameter emitted from the breath-activated inhaler was measured using an IHA accessory (Sympatec) with the HELOS laser diffractometer. The IHA adapter positions the DPI in front of the measuring zone and allows air to be pulled through the DPI which aerosolizes the powder. Vacuum was drawn at 30 L/min to disperse powder from the AIR inhaler and the geometric diameter was measured by Fraunhofer diffraction.

[9] = Aerodynamic diameter by AeroDisperser/Aerosizer (AeroBreather for emitted size); assay type: physicochemical; conditions: AIR inhaler at 30 L/min, FIG. 2B
Method: The primary aerodynamic diameter was measured using an AeroDisperser/Aerosizer (TSI Inc., Amherst, Mass.). The sample powder was aerosolized by an inlet air stream at 1 psi in the AeroDisperser and then accelerated to sonic velocity into the Aerosizer. The Aerosizer measures the time taken for each particle to pass between two fixed laser beams, which is dependent on the particle's inertia. The TOF (time of flight) measurements were subsequently converted into aerodynamic diameters using Stokes law.
The emitted aerodynamic diameter from the AIR inhaler was determined using the AeroBreather (TSI Inc., Amherst, Mass.) in conjunction with the Aerosizer (TSI, Inc.). The powder was aerosolized from the inhaler at 30 L/min into the AeroBreather chamber and allowed to settle into the Aerosizer.
Aerodynamic diameter was analyzed using the API AeroDisperser and Aerosizer (TSI, Inc., St. Paul, Minn.) following standard procedures (Alkermes SOP #MS-034-005). Sample powder was introduced and dispersed in the AeroDisperser and then accelerated through a nozzle in the Aerosizer. A direct time-of-flight measurement was made for each particle in the Aerosizer, which was dependent on the particle's inertia. The time-of-flight distribution was then translated into a mass-based aerodynamic particle size distribution using a force balance based on Stokes law.

Compound: CC(C(=O)O)c1cccc(C(=O)c2ccccc2)c1 (stereo not drawn) [Ketoprofen]
- time required to achieve maximum plasma concentration (insufflated rats): < 15 min
- time required to achieve maximum plasma concentration (orally dosed rats): 15 to 60 min
- time required to achieve maximum plasma concentration (pulmonary delivery route): ≤ 10 min
- plasma levels of ketoprofen, insufflated versus oral group (t=5 min to t=60 min): significantly higher
- plasma levels of ketoprofen, insufflated versus oral group (t=120 min and t=240 min): statistically equivalent

Compound: N[C@@H](Cc1ccc(O)c(O)c1)C(=O)O [L-Dopa]
- difference in drug required to produce equivalent efficacy, oral versus pulmonary ([1]; doses normalized by body weight): ~10 fold
- time of maximal effects ([1]; oral, 20 mg/kg): 60 min
- time of peak performance ([1]; oral, 30 mg/kg): 1 to 2 h
- time to improved performance with the impaired limb ([1]; oral, 30 mg/kg): ≤ 30 min
- lowest dose with significant improvements ([1]; pulmonary): 0.5 mg
- pulmonary dose with recovery comparable to 30 mg/kg given orally ([1]; pulmonary): 1 mg
- time of peak benefits ([1]; pulmonary, highest dose tested): 15 to 30 min
- time to significant improvements ([1]; pulmonary, highest dose tested): ≤ 10 min
- effect on performance ([2]; oral, 20 mg/kg): slightly improved performance
- time of maximal effects ([2]; oral, 30 mg/kg): ≤ 60 min
- time to improved performance ([2]; oral, 30 mg/kg): ≤ 30 min
- lowest dose with statistically significant improvements ([2]; pulmonary): 0.5 mg
- time of peak benefits ([2]; pulmonary): 15 to 30 min
- time to significant improvements ([2]; pulmonary): ≤ 10 min
- time of maximal effects ([3]; oral, 30 mg/kg): ≤ 60 min
- time to improved performance ([3]; oral, 30 mg/kg): ≤ 30 min
- lowest dose with statistically significant (p<0.05) improvements ([3]; pulmonary): 1.0 mg
- time of peak benefits ([3]; pulmonary): 15 to 30 min
- time to significant improvements ([3]; pulmonary): ≤ 10 min
- rotation behavior without pre-treatment with carbidopa ([4]; data not shown): virtually eliminated
- time of peak rotation levels ([4]; oral, 30 mg/kg): approximately 30 minutes
- rotations during the first 10-15 minutes ([4]; oral, 30 mg/kg, carbidopa pre-treatment): < 5 rotations/animal
- rotations relative to oral delivery within the first 10-15 minutes ([4]; pulmonary, 2 mg total): greater than 3 times
- time of peak rotations ([4]; pulmonary, 2 mg total): 25 to 30 min
- increase in blood levels of L-Dopa over time [5]: modest

Compound: albuterol sulfate [Micronized Alb. Sulfate (1)]
- primary particle size as measured by RODOS [6]: ~2 microns
- Dg (geometric diameter) ([6]; RODOS/HELOS): 2.5 μm
- state of powder exiting the RODOS orifice ([6]; pressures below 2 bars): aggregated state
- ρ (tap density) [7]: 0.26 g/cc
- geometric diameter emitted from the inhaler [8]: greater than 30 microns
- emitted aerodynamic diameter compared to primary aerodynamic diameter [9]: much larger
